Data as given in patent US8945540B2, “Compositions for enhancing the antibacterial activity of myeloperoxidase and methods of use thereof” (Exoxemis, Inc., priority 2008, dated 2015).
Where two headings read alike, the source gives them in different places. Where a SMILES comes first, the peptide text is derived from it.

What was measured:
[1] = tested on: Staphylococcus aureus; experiment: Microbicidal activity of the myeloperoxidase system (p-MPO, glucose oxidase, glucose) with amino acids in the presence of blood, CFU plate counts; synergy determination from these CFU; assay type: cell-based; conditions: for Average Viability CFU/ml 50 min / Log Reduction 50 min: MPO 4.7 U/ml, GO 4.2 U/ml
Method in brief: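 Microbicidal activity of the MPO–glucose oxidase–glucose system against S. aureus with amino acids was assessed in 3% whole blood. Reactions of 1 mL were run at room temperature or 37° C and stopped with catalase. Surviving CFU were counted on trypticase soy agar. For each pair, Actual CFU was divided by Predicted CFU and multiplied by 100. This value was compared with variability-based thresholds to classify synergism, antagonism or additivity.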

[2] = tested on: Staphylococcus aureus; experiment: Control: microbicidal activity of the amino acid or analogue alone (no glucose, MPO, glucose oxidase) in the presence of blood; assay type: cell-based; conditions: for log reduction at 5000 µM: Staphylococcus aureus, 1 h, read-out: Log Reduction 60 min
Excerpt: As a control to determine the microbicidal activity of the amino acids alone, the foregoing procedure was followed without replication, except in the absence of glucose, MPO, and glucose oxidase.

[3] = MPO 100 μg/mL, AA 20 mM, 30 min
[4] = MPO 100 μg/mL, AA 20 mM, 60 min
[5] = Table 2, amino acid 5 mM (none: 0 mM), MPO 38 U/ml, GO 33.3 U/ml, blood
[6] = Table 10, single amino acid 2.5 mM, in the presence of blood, 50 min
[7] = Table 11, single amino acid 2.5 mM, in the presence of blood, 50 min
[8] = Table 14, single amino acid 2.5 mM, in the presence of blood, 50 min
[9] = Table 19, amino acid 3.5 mM, 50 min
[10] = amino acid alone 5 mM, MPO 0, GO 0, no glucose, blood, without replication
[11] = Table 5, amino acid 5 mM (none: 0 mM), MPO 38 U/ml, GO 33.3 U/ml, blood
[12] = Table 7, amino acid analogue 5 mM, MPO 38 U/ml, GO 33.3 U/ml, blood
[13] = amino acid analogue alone 5 mM, MPO 0, GO 0, no glucose, blood
[14] = Table 4, amino acid 5 mM (none: 0 mM), MPO 38 U/ml, GO 33.3 U/ml, blood
[15] = Table 13, single amino acid 2.5 mM, in the presence of blood, 50 min
[16] = single amino acid 2.5 mM, blood
[17] = Table 3, amino acid 5 mM (none: 0 mM), MPO 38 U/ml, GO 33.3 U/ml, blood

Compound | Log 10 (CFU + 1) Survivors ([1]; MPO 25 μg/mL, AA 5 mM, 30 min) | Log 10 (CFU + 1) Survivors ([1]; MPO 25 μg/mL, AA 5 mM, 60 min) | Log 10 (CFU + 1) Survivors ([1]; MPO 25 μg/mL, AA […], 30 min) | Log 10 (CFU + 1) Survivors ([1]; MPO 25 μg/mL, AA […], 60 min) | Log 10 (CFU + 1) Survivors ([1]; MPO 100 μg/mL, AA 5 mM, 30 min) | Log 10 (CFU + 1) Survivors ([1]; MPO 100 μg/mL, AA 5 mM, 60 min) | Log 10 (CFU + 1) Survivors [1, 3] | Log 10 (CFU + 1) Survivors [1, 4] | log reduction at 5000 µM [2, 10] | Average Viability CFU/ml 60 min [2, 10] | Average Viability CFU/ml 60 min [1, 12] | Log Reduction 60 min [1, 12] | Average Viability CFU/ml 60 min [2, 13] | other results
N[C@@H](Cc1ccccc1)C(=O)O [L-Phenylalanine] | 7.1 | 0.0 | 7.0 | 4.9 | 0.0 | 0.0 | 0.0 | 0.0 | 0 | 22400000 CFU/ml |  |  |  | Average Viability CFU/ml 60 min [1, 5]: 0 CFU/ml; Log 10 (CFU + 1) Survivors 60 min [1, 5]: 0.0; Log Reduction 60 min [1, 5]: 7.4; Average Viability CFU/ml 50 min [1, 6]: 10550000 CFU/ml; Log Reduction 50 min [1, 6]: 0.4; Average Viability CFU/ml 50 min [1, 7]: 11100000 CFU/ml; Log Reduction 50 min [1, 7]: 0.4; Average Viability CFU/ml 50 min [1, 8]: 12050000 CFU/ml; Log Reduction 50 min [1, 8]: 0.3; Average Viability CFU/ml 50 min [1, 9]: 11200000 CFU/ml; Log Reduction 50 min [1, 9]: 0.4
CSCC[C@@H](N)C(=O)O [D-Methionine] |  |  |  |  |  |  |  |  | 0.1 | 21100000 CFU/ml |  |  |  | Average Viability CFU/ml 60 min [1, 11]: 9400000 CFU/ml; Log Reduction 60 min [1, 11]: 0.4
CCOC(=O)CC(C)N (centres unmarked) [Ethyl 3-aminobutyrate] |  |  |  |  |  |  |  |  |  |  | 0 CFU/ml | 7.4 | 20900000 CFU/ml | log reduction at 5000 µM [2, 13]: 0
NCCCC[C@@H](N)C(=O)O [D-Lysine] |  |  |  |  |  |  |  |  |  | 25100000 CFU/ml |  |  |  | Average Viability CFU/ml 60 min [1, 14]: 5050000 CFU/ml; Log Reduction 60 min [1, 14]: 0.7; log reduction at 5000 µM [2]: 0
COC(=O)[C@@H](N)CCCCN.Cl.Cl [L-Lysine methyl ester dihydrochloride] |  |  |  |  |  |  |  |  |  |  | 0 CFU/ml | 7.4 | 21500000 CFU/ml | log reduction at 5000 µM [2]: 0
N=C(N)NCCC[C@@H](N)C(=O)O [D-Arginine] | 6.9 | 6.7 | 7.0 | 5.9 | 6.9 | 0.0 | 7.0 | 6.8 |  | 21500000 CFU/ml |  |  |  | Average Viability CFU/ml 60 min [1, 11]: 0 CFU/ml; Log Reduction 60 min [1, 11]: 7.4; Average Viability CFU/ml 50 min [1, 6]: 14200000 CFU/ml; Log Reduction 50 min [1, 6]: 0.2; Average Viability CFU/ml 50 min [1, 7]: 14650000 CFU/ml; Log Reduction 50 min [1, 7]: 0.3; Average Viability CFU/ml 50 min [1, 8]: 15000000 CFU/ml; Log Reduction 50 min [1, 8]: 0.3; enhancement of MPO microbicidal activity (in words) ([1]; amino acid 5 mM, MPO 38 U/ml, GO 33.3 U/ml, blood): highly active; log reduction at 5000 µM [2]: 0.1
NCC(=O)O [Glycine] | 7.2 | 6.8 | 7.3 | 6.9 | 6.0 | 0.0 | 7.0 | 0.0 | 0 | 25300000 CFU/ml |  |  |  | Average Viability CFU/ml 60 min [1, 5]: 0 CFU/ml; Log 10 (CFU + 1) Survivors 60 min [1, 5]: 0.0; Log Reduction 60 min [1, 5]: 7.4; Average Viability CFU/ml 50 min [1, 6]: 9100 CFU/ml; Log Reduction 50 min [1, 6]: 3.4; Average Viability CFU/ml 50 min [1, 15]: 10050 CFU/ml; Log Reduction 50 min [1, 15]: 3.4; Average Viability CFU/ml 50 min [1, 16]: 7050 CFU/ml; Log Reduction 50 min [1, 16]: 3.5; CFU survivors, amino acid acting separately ([1]; standard conditions of Example 5 (2.5 μmol/mL; MPO 4.7 U/mL; GO 4.2 U/mL)): 9300 CFU
CNCC(=O)OC.Cl [Sarcosine methyl ester hydrochloride] |  |  |  |  |  |  |  |  |  |  | 0 CFU/ml | 7.4 | 23200000 CFU/ml | log reduction at 5000 µM [2, 13]: 0
N[C@H](CCC(=O)O)C(=O)O [D-Glutamic acid] |  |  |  |  |  |  |  |  |  | 26200000 CFU/ml |  |  |  | Average Viability CFU/ml 60 min [1, 14]: 955000 CFU/ml; Log Reduction 60 min [1, 14]: 1.4; log reduction at 5000 µM [2]: 0
C[C@H](N)C(=O)N[C@@H](C)C(=O)O [L-Ala-L-ala] (H-Ala-Ala-OH) |  |  |  |  |  |  |  |  |  | 26100000 CFU/ml |  |  |  | Average Viability CFU/ml 60 min [1, 14]: 238500 CFU/ml; Log Reduction 60 min [1, 14]: 2.0; Log Reduction 60 min [2, 10]: 0.0
CCOC(=O)[C@@H](N)C(C)C.Cl [L-Valine ethyl ester hydrochloride] |  |  |  |  |  |  |  |  |  |  | 0 CFU/ml | 7.4 | 22300000 CFU/ml | log reduction at 5000 µM [2, 13]: 0
CCOC(=O)C(C)N (centres unmarked) [Ethyl 2-aminopropanoate] |  |  |  |  |  |  |  |  |  |  | 0 CFU/ml | 7.4 | 23200000 CFU/ml | log reduction at 5000 µM [2, 13]: 0
C[C@H](O)[C@@H](N)C(=O)O [D-Threonine] | 7.3 | 6.8 | 7.3 | 6.7 | 7.1 | 5.1 | 7.4 | 5.0 | 0 | 20700000 CFU/ml |  |  |  | Average Viability CFU/ml 60 min [1, 17]: 815000 CFU/ml; Log 10 (CFU + 1) Survivors 60 min [1, 17]: 5.9; Log Reduction 60 min [1, 17]: 1.4; Average Viability CFU/ml 50 min [1, 7]: 2020000 CFU/ml; Log Reduction 50 min [1, 7]: 1.1
N[C@H](Cc1ccc(O)cc1)C(=O)O [D-Tyrosine] | 6.8 | 5.9 | 6.7 | 7.0 | 6.7 | 5.0 | 5.8 | 0.0 | 0 | 23200000 CFU/ml |  |  |  | Average Viability CFU/ml 60 min [1, 11]: 9400 CFU/ml; Log Reduction 60 min [1, 11]: 3.4; Average Viability CFU/ml 50 min [1, 6]: 1320000 CFU/ml; Log Reduction 50 min [1, 6]: 1.3
